Experimental findings from US20090012263A1, “Process for Production of (1,3-Disubstituted Indolyl)-Urea Derivatives, Intermediates Therefor, and Process for Production of the Intermediates” (KOWA COMPANY, LTD., priority 2004, published 2009) are described below.

The series in a line: storage stability of the intermediate. Format: physicochemical.

Take `O=C(Nc1ccc2c(c1)c(CN1CCCC1)cn2Cc1c(Cl)cccc1Cl)Oc1ccccc1` [Example 2, 5-phenyloxycarbonylamino-3-(1-pyrrolidinylmethyl)-N-[1-(2,6-dichlorophenyl)methyl]-1H-indole]: where the note is “room temperature under light shielding, crystalline”, the “can be stored (storage stability)” value is “over 2 years”. As for `O=C(Nc1ccc2c(CN3CCCC3)cn(Cc3c(Cl)cccc3Cl)c2c1)Oc1ccccc1` [Example 4, 6-phenyloxycarbonylamino-3-(1-pyrrolidinylmethyl)-N-[1-(2,6-dichlorophenyl)methyl]-1H-indole], for the setting “under refrigeration and light shielding, amorphous powder”, the stability of storage result is recorded as “over 3 months”.
